Source: ChEMBL document CHEMBL4680273, “Teixobactin: A Paving Stone toward a New Class of Antibiotics?” (2020)
In brackets after ≈: the same amount, converted by molar mass. Values belong to the molecule of their own block, whether it stands above or below them.

Tests used:
Type in all cases: functional
Staphylococcus aureus [1] = experiment: Antibacterial activity against Staphylococcus aureus ATCC 29213 by CLSI-based broth microdilution method
Staphylococcus aureus [2] = experiment: Antibacterial activity against methicillin resistant Staphylococcus aureus
Staphylococcus aureus [3] = experiment: Antibacterial activity against methicillin- resistant Staphylococcus aureus SA86
Staphylococcus aureus [4] = experiment: Antibacterial activity against Staphylococcus aureus ATCC 29213
Bacillus subtilis = experiment: Antibacterial activity against Bacillus subtilis ATCC 6051 incubated for 24 hrs by CLSI based broth microdilution method
Staphylococcus aureus [5] = experiment: Antibacterial activity against Staphylococcus aureus ATCC 29213 incubated for 24 hrs by CLSI-based broth microdilution method
Staphylococcus aureus [6] = experiment: Antibacterial activity against methicillin- resistant Staphylococcus aureus TH4115 incubated for 16 to 20 hrs by CLSI-based broth microdilution method; conditions: time 16-20 hrs
Staphylococcus aureus [7] = experiment: Antibacterial activity against Staphylococcus aureus TH4112 incubated for 16 to 20 hrs by CLSI-based broth microdilution method; conditions: time 16-20 hrs
Staphylococcus aureus [8] = experiment: Antibacterial activity against methicillin resistant Staphylococcus aureus USA300
Staphylococcus aureus [9] = experiment: Antibacterial activity against Staphylococcus aureus ATCC 29213 incubated for 20 hrs by CLSI-based broth microdilution checkerboard method
[10] = system: Staphylococcus epidermidis; experiment: Antibacterial activity against Staphylococcus epidermidis ATCC 14990 incubated for 16 hrs by UV/Visible absorbance method
Staphylococcus aureus [11] = experiment: Antibacterial activity against Staphylococcus aureus ATCC 29213 incubated for 16 hrs by UV/Visible absorbance method
Staphylococcus aureus [12] = experiment: Antibacterial activity against Staphylococcus aureus SH1000 incubated for 24 hrs by CLSI-broth microdilution method; conditions: Staphylococcus aureus, SH1000, read-out: MIC
Pseudomonas aeruginosa = experiment: Antibacterial activity against Pseudomonas aeruginosa PAO1 incubated for 24 hrs in presence of colistin by Checkerboard assay

SMILES: CC[C@H](C)[C@H](NC(=O)[C@@H](Cc1ccccc1)NC)C(=O)N[C@@H](CO)C(=O)N[C@H](CC(N)=O)C(=O)N[C@@H](C(=O)N[C@H](C(=O)N[C@@H](C)C(=O)N[C@H]1C(=O)N[C@@H](C)C(=O)N[C@@H](CCCNC(=N)N)C(=O)N[C@@H]([C@@H](C)CC)C(=O)O[C@H]1C)[C@@H](C)CC)[C@@H](C)CC
- MIC (Staphylococcus aureus [1]): 2 µg/mL (≈ 1.65 µM)
- MIC (Staphylococcus aureus [2]): 0.5 µg/mL (≈ 0.412 µM)

SMILES: CC[C@H](C)[C@H](NC(=O)[C@H](NC(=O)[C@@H](CCC(N)=O)NC(=O)[C@H](CO)NC(=O)[C@H](CC(C)C)NC(=O)[C@@H](Cc1ccccc1)NC)[C@@H](C)CC)C(=O)N[C@@H](CO)C(=O)N[C@H]1C(=O)N[C@@H](C)C(=O)NC(CCCN)C(=O)N[C@@H]([C@@H](C)CC)C(=O)O[C@H]1C (stereo not given in full)
- MIC (Staphylococcus aureus [3]): 4 µg/mL (≈ 3.33 µM)
- MIC (Staphylococcus aureus [4]): 4 µg/mL (≈ 3.33 µM)

SMILES: CC[C@H](C)[C@H](NC(=O)[C@H](NC(=O)[C@@H](CCC(N)=O)NC(=O)[C@H](CO)NC(=O)[C@@H](NC(=O)[C@@H](Cc1ccccc1)NC)C(C)C)[C@@H](C)CC)C(=O)N[C@@H](CO)C(=O)N[C@H]1C(=O)N[C@@H](C)C(=O)NC(CCCN)C(=O)N[C@@H]([C@@H](C)CC)C(=O)O[C@H]1C (stereo not given in full)
- MIC (Staphylococcus aureus [3]): 8 µg/mL (≈ 6.73 µM)
- MIC (Staphylococcus aureus [4]): 8 µg/mL (≈ 6.73 µM)

- MIC (Bacillus subtilis): 8 µg/mL (≈ 6.22 µM)
- MIC (Staphylococcus aureus [5]): 32 µg/mL (≈ 24.9 µM)
SMILES: CC[C@H](C)[C@H](NC(=O)[C@@H](Cc1ccccc1)NC)C(=O)N[C@@H](CO)C(=O)N[C@H](CCC(N)=O)C(=O)N[C@@H](C(=O)N[C@H](C(=O)N[C@@H](CCCCO)C(=O)N[C@H]1C(=O)N[C@@H](C)C(=O)N[C@@H](CCCNC(=N)N)C(=O)N[C@@H]([C@@H](C)CC)C(=O)O[C@H]1C)[C@@H](C)CC)[C@@H](C)CC

SMILES: CC[C@H](C)[C@H](NC(=O)[C@@H](Cc1ccc(-c2ccccc2)cc1)NC)C(=O)N[C@@H](CO)C(=O)N[C@H](CCCNC(=N)N)C(=O)N[C@@H](C(=O)N[C@H](C(=O)N[C@@H](CO)C(=O)N[C@H]1C(=O)N[C@@H](C)C(=O)N[C@@H](C[C@H]2CNC(=N)N2)C(=O)N[C@@H]([C@@H](C)CC)C(=O)O[C@H]1C)[C@@H](C)CC)[C@@H](C)CC
- MIC (Staphylococcus aureus [6]): 0.25 µg/mL (≈ 0.186 µM)
- MIC (Staphylococcus aureus [7]): 0.25 µg/mL (≈ 0.186 µM)

SMILES: CC[C@H](C)[C@H](NC(=O)[C@@H](Cc1ccccc1)NC)C(=O)N[C@@H](CO)C(=O)N[C@H](CCCNC(=N)N)C(=O)N[C@@H](C(=O)N[C@H](C(=O)N[C@@H](C)C(=O)N[C@H]1C(=O)N[C@@H](C)C(=O)N[C@@H](CCCNC(=N)N)C(=O)N[C@@H]([C@@H](C)CC)C(=O)O[C@H]1C)[C@@H](C)CC)[C@@H](C)CC
- MIC (Staphylococcus aureus [1]): 2 µg/mL (≈ 1.59 µM)
- MIC (Staphylococcus aureus [2]): 1 µg/mL (≈ 0.796 µM)

SMILES: CC[C@H](C)[C@H](NC(=O)[C@@H](Cc1ccccc1)NC)C(=O)N[C@@H](CO)C(=O)N[C@H](CCC(N)=O)C(=O)N[C@@H](C(=O)N[C@H](C(=O)N[C@@H](CO)C(=O)N[C@H]1C(=O)N[C@@H](C)C(=O)N[C@@H](CCC/N=C(\N)N(C)C)C(=O)N[C@@H]([C@@H](C)CC)C(=O)O[C@H]1C)[C@@H](C)CC)[C@@H](C)CC
- MIC (Staphylococcus aureus [8]): 4 µg/mL (≈ 3.14 µM)

- MIC (Bacillus subtilis): 1 µg/mL (≈ 0.814 µM)
- MIC (Staphylococcus aureus [5]): 4 µg/mL (≈ 3.26 µM)
SMILES: CC[C@H](C)[C@H](NC(=O)[C@@H](Cc1ccccc1)NC)C(=O)N[C@@H](CO)C(=O)N[C@H](CCCCN)C(=O)N[C@@H](C(=O)N[C@H](C(=O)N[C@@H](C)C(=O)N[C@H]1C(=O)N[C@@H](C)C(=O)N[C@@H](CCCNC(=N)N)C(=O)N[C@@H]([C@@H](C)CC)C(=O)O[C@H]1C)[C@@H](C)CC)[C@@H](C)CC

- MIC (Staphylococcus aureus [9]): 16 µg/mL
SMILES: CC[C@H](C)[C@H](NC(=O)[C@@H](Cc1ccccc1)NC)C(=O)N[C@@H](CO)C(=O)N[C@H](CCC(N)=O)C(=O)N[C@@H](C(=O)N(C)[C@H](C(=O)N[C@@H](CO)C(=O)N[C@H]1C(=O)N[C@@H](C)C(=O)N[C@@H](CCCCN)C(=O)N[C@@H]([C@@H](C)CC)C(=O)O[C@H]1C)[C@@H](C)CC)[C@@H](C)CC

- MIC [10]: 16 µg/mL (≈ 13 µM)
- MIC (Staphylococcus aureus [11]): 16 µg/mL (≈ 13 µM)
SMILES: CC[C@H](C)[C@H](NC(=O)[C@@H](Cc1ccccc1)NC)C(=O)N[C@@H](CO)C(=O)N(C)[C@H](CCC(N)=O)C(=O)N[C@@H](C(=O)N[C@H](C(=O)N[C@@H](CO)C(=O)N[C@H]1C(=O)N[C@@H](C)C(=O)N[C@@H](CCCCN)C(=O)N[C@@H]([C@@H](C)CC)C(=O)O[C@H]1C)[C@@H](C)CC)[C@@H](C)CC

- MIC (Staphylococcus aureus [12]): 8 µg/mL (≈ 6.37 µM)
- MIC (Pseudomonas aeruginosa): 32 µg/mL
SMILES: CCCCC1NC(=O)C(CCCC(F)(F)F)NC(=O)[C@H](C)NC(=O)[C@H](NC(=O)[C@H](CO)NC(=O)[C@@H](NC(=O)[C@H](NC(=O)[C@@H](CCC(N)=O)NC(=O)[C@H](CO)NC(=O)[C@@H](NC(=O)[C@@H](Cc2ccccc2)NC)[C@@H](C)CC)[C@@H](C)CC)[C@@H](C)CC)[C@H](C)OC1=O (stereo not given in full)
